Drawing on BindingDB's records for doi:10.1124/jpet.102.046318 (Georgetown University, 2003), this text covers Ki for 2 compounds.

SMILES strings stand for the structures.

In experiment [1] the target is Sodium-dependent dopamine transporter (Rattus norvegicus, UniProt P23977).
Experiment [2] deals with Sodium-dependent serotonin transporter (Rattus norvegicus, UniProt P31652).
Experiment [3] deals with Norepinephrine transporter (Rattus norvegicus, UniProt Q9JIA2).

Chain of Sodium-dependent dopamine transporter (P23977 whole entry): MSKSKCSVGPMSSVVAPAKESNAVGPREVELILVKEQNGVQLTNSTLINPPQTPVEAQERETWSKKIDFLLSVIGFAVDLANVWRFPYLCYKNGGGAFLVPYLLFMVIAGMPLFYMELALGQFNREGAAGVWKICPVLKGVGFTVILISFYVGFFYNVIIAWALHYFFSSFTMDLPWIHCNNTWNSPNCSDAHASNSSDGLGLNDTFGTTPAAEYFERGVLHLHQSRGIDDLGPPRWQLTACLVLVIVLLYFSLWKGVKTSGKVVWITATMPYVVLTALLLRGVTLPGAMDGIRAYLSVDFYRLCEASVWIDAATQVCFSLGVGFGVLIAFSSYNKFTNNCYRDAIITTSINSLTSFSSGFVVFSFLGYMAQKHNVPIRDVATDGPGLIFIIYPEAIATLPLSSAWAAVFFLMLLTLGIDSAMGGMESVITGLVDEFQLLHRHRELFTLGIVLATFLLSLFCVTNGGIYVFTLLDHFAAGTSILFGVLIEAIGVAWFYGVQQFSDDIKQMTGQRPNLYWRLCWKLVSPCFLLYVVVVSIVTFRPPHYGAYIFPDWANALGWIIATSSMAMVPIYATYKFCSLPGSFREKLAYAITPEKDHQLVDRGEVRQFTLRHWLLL
Chain of Sodium-dependent serotonin transporter (P31652 whole entry): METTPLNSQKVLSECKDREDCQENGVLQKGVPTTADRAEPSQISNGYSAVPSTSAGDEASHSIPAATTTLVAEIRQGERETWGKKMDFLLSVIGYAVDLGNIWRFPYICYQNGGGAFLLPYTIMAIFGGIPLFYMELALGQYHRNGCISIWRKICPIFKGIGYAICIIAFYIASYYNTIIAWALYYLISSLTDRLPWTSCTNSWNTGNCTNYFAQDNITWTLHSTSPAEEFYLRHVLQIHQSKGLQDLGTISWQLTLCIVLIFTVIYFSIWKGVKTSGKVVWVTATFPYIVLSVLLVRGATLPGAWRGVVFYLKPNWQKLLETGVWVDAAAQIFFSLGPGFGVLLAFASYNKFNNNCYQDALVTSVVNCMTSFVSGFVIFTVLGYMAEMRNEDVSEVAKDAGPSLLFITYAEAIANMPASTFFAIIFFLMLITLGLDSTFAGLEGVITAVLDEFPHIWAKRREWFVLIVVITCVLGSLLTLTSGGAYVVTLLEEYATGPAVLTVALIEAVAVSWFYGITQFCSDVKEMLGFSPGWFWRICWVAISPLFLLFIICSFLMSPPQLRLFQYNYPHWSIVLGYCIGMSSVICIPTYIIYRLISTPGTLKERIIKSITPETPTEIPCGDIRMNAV

Usually Ki stands for the dissociation constant of the complex between target and ligand, obtained from inhibition or displacement. Consider `CN1CCC(c2ccc(Cl)cc2)[C@H](C(=O)O)C1` (stereo not given in full) [CAS_8268], for which the Ki worked out at 0.276 µM in experiment [1], 5.9 µM in experiment [2] and 0.09 µM in experiment [3].
In the case of `CN1CCC(c2ccc(Cl)cc2)[C@@H](C(=O)O)C1` (stereo partly drawn) [cis-CPCA, -], the Ki in experiment [1] came out at 0.067 µM; in experiment [3], 0.098 µM.
